# Experimental data as given in patent publication US20200069644A1, “NOVEL USE OF A FORMYL PEPTIDE RECEPTOR 2/ LIPOXIN A4 RECEPTOR (FPR2/ALX) AGONIST FOR TREATMENT OF HEART FAILURE” (BRISTOL- MYERS SQUIBB COMPANY, priority 2017, published 2020).
# Experiments:
# [1] = test system: myocardial infarction in mice; assay: Mouse permanent coronary artery occlusion, early infarct composition 3 days post MI; assay type: in vivo; settings: 3 mg/kg PO QD
# Experimental: In order to understand early changes in the infarct extracellular matrix, collagen remodeling enzymes and their endogenous inhibitors, the effects of 3 mg/kg Compound 1 treatment on the myocardial infarct composition in mice were evaluated 3 days post myocardial infarction. Myocardial infarction was created by permanently ligating the left anterior descending artery with a surgical suture. Treatment (QD, PO; suspension vehicle or Compound 1 at 3 mg/kg) was initiated 24 hours after MI and were continued to 3 days post MI. On day 3, mice received a final dose of treatment and the hearts were removed 2 hours post treatment (i.e., 74 hours after MI) for histological analysis.
# [2] = test system: angiotensin II-induced cardiac fibrosis in mice; assay: Angiotensin II-induced cardiac fibrosis mouse model; assay type: in vivo; settings: 3 mg/kg QD for 3 weeks, P<0.001
# Experimental: To assess myocardial fibrosis in the setting of non-ischemic heart disease with hypertension, mice were challenged with angiotensin II to stimulate cardiac hypertrophy and left ventricular fibrosis. Mice were administered angiotensin II using subcutaneously implanted osmotic mini-pumps (˜2 mg/kg/day). A separate group of mice were implanted with subcutaneous pumps containing saline (surgical “sham” group); these mice served as control for pump implantation surgery. Mice were treated with Compound 1 (3 mg/kg, QD) or dosing solution without compound (QD, referred to as vehicle) starting 7 days following pump implantation. In this model, cardiac fibrosis development reaches its peak and without treatment, will remain fibrotic at this high level until the angII is depleted (˜4 weeks post implantation). Interventional treatment with Compound 1 to regress cardiac fibrosis was given to mice for 3 weeks. At the end of treatment phase, hearts were removed from animals and evaluated for collagen levels/fibrosis by cross-sectional histology of the hearts.
# Myocardial fibrosis was evaluated in the mouse with continuous angiotensin II challenge administered by subcutaneous osmotic mini-pump. This is a model of non-ischemic heart disease.
# The effect of Compound 1 on regression of established cardiac fibrosis was evaluated in the angiotensin II-induced cardiac fibrosis mouse model. […]
# HL-60 cell line = assay: HL-60 cell migration assay, antagonist mode (SAA-stimulated chemotaxis); assay type: cell-based; settings: Homo sapiens; HL-60 cells; read-out: IC50, antagonism of chemotaxis stimulated by SAA
# Experimental: The HL-60 cell line (ATCC, CCL-240, lot 60398411) was maintained in IMDM (Life Tech, cat 12440-053) medium supplemented with 20% fetal bovine serum, 50 U/ml penicillin, and 50 μg/ml streptomycin at 37° with 5% CO2. Cells were differentiated into the granulocyte lineage with DMSO; 2.5×10^5 cells/ml were incubated with 1.25% DMSO for 5 days.
# After 5 day differentiation, the cells were resuspended in phenol free RPMI (Invitrogen, cat 11835) with 0.2% fatty acid free BSA at a concentration of […]. The dHL-60 cells (10^5 in 100 μl) were pre-incubated for 15 minutes with varying concentrations of the […] at 37° with 5% CO2. Then 0.8 μM of the recombinant serum amyloid A1 peptide (rSAA1, PeproTech, Cat #300-53) was added to the bottom chamber of each HTS transwell-96 well plate (Corning #3387). Migration was induced by placing […] and the dHL60 cells mixture in the top chamber of the transwell plate. Cells were allowed to migrate for 120 min across the 5 micron filters at 37° C. with 5% CO2. Following migration, neutrophils or dHL-60 cells remaining in the transwell lower chamber (migrated fraction) were quantitated using the cell-titer-glo luminescence cell viability assay (Promega, G7571). […]
# [3] = test system: myocardial infarction in rats; assay: Rat model of permanent coronary artery occlusion, 6 weeks; assay type: in vivo
# Experimental: In a second model of myocardial infarction, permanent coronary artery occlusion was carried out in rats using a ligature placed around the left anterior descending artery to induce myocardial infarction. Treatment with orally-administered Compound 1 (0.01, 0.1, 1, and 10 mg/kg, QD) or dosing solution without compound (QD, referred to as vehicle) was initiated 48 hours following myocardial infarction. Rats subjected to thoracotomy but not infarcted were included as surgical “sham” controls. Rats were evaluated 6 weeks following myocardial infarction to assess structure/function relationships. Hearts were removed from rats for histological processing to measure infarct wall thickness and collagen composition. Echocardiography was carried out to evaluate cardiac function.
# The effects of Compound 1 on left ventricle and infarct scar remodeling were evaluated in a rat model of permanent coronary artery occlusion. […] In addition, the effect of Compound 1 on cardiac function was measured by echocardiography to assess structure/function relationships. The structure of the myocardial wall was measured histologically. […]
# Echocardiography was used to measure cardiac function at the end of the treatment phase. The fraction of blood pumped out of the left ventricle per contraction cycle (i.e., ejection fraction) was determined using M-mode echocardiography. […]
structure (smiles),measurement,setting,value
"COc1cc(F)c([C@@H]2CNC(=O)[C@H]2NC(=O)Nc2ccccc2)c(F)c1 [Compound 1, 1-((3S,4R)-4-(2,6-difluoro-4-methoxyphenyl)-2-oxopyrrolidin-3-yl)-3-phenylurea]",MMP-2 in infarcted myocardium vs. vehicle,[1],trend towards less MMP-2
same,TIMP-4 in infarcted tissue vs. vehicle,[1],No differences
same,average infarct area vs. vehicle,[1],similar
same,"collagen content within the infarct, increase vs. vehicle",[1]; P<0.05,1.7 fold
same,reduction of left ventricular fibrosis vs. vehicle treatment group,[2]; started 7 days after pump implantation,90%
same,reduction of fibrosis relative to 7-day baseline group,[2],89%
same,IC50,HL-60 cell line,0.057 µM
same,contralateral wall thickness,"[3]; 0.01-10 mg/kg, between treatment groups or sham",No changes
same,"transmural infarct wall thickness, increase relative to vehicle","[3]; 10 mg/kg PO QD, started 48 h after MI, P<0.01",96%
